According to patent publication US12427183B2, “Methods of treating cancer, infectious disease, and autoimmune disease using chemokines” (New York Society for the Relief of the Ruptured and …, priority 2016, dated 2025):

Columns and labels:
healthy monocytes = test: Cytokines in healthy monocytes with CXCL4; format: cell-based, human
[1] = system: TLR9-mediated activation of pDCs; test: TLR9-mediated activation of purified pDCs (CpG with or without chemokines), IFN-α ELISA; format: cell-based, human
[2] = system: TLR8-mediated activation of SSc pDCs; test: TLR8 activation assay of pDCs from SSc patients (ORN-8L with or without CXCL4); format: cell-based, human; details: ORN-8L 200 μg/ml + CXCL4, 24 hours
Method: (§1) PBMCs were prepared using Ficoll-Paque density gradient from fresh blood under internal Institutional Review Board-approved protocols. pDCs were isolated as previously described (Guiducci et al. 2008) using either using negative depletion (Miltenyi Biotech) or following cell sorting using a BD IFNLUX cell sorter. As part of the gating strategy, neutrophils were excluded by FSC/SSC and cells positive for CD14 (CD3 and CD19 as well) were first excluded in order to prevent the contamination by TLR8 positive cells and then positively gated on HLA-DR, CD123 and BDCA4 to purify the pDCs. All BDCA4+ cells also express BDCA2 (results not shown). As a result, pure pDCs were obtained and no markers for neutrophils (CD66) or myeloid cells were found by PCR. B cells were FACS sorted as CD19+ and monocytes as CD14+ cells. PBMCs were depleted of pDCs using BDCA4 beads from Miltenyi. pDCs were cultured at 10,000-30,000 cells per well in a 96-round bottom plate and incubated at 37° C., 5% CO2 and 95% humidity. After 24 hours of culture, the supernatant was collected for ELISA or Mutiplex cytokine assays. In some culture conditions, cells were cultured with the PI3Kδ inhibitor, CAL-101 (Selleck chemicals) for 24 hours. The RNA-based TLR8 agonist, ORN8-L previously described (Guidacci et al. 2013) was synthetized by Chemgenes Corporation. For the TLR8 activation assay, pDCs were incubated in complete media alone, 200 μg/ml ORN8-L in complete media or 200 μg/ml ORN8-L+ 10 μg/ml CXCL4 (R&D systems).
Supernatant from pDCs 24 hour culture was used for quantification of secreted chemokines and cytokines and measured with the use of an enzyme-linked immunosorbent assay (ELISA) or Luminex multiplex-beads immunoassay. CXCL4 ELISA (Ray Biotech) and IFNα, IP-10, IL-6, TNF Luminex assay (Millipore) was performed according to the manufacturer's protocol. Due to the variability in the number of cells obtained from the different patients and so we could compare the values across donors, all results were normalized to 10,000 cells. Of note, for all donors, pDCs were plated between 10,000-30,000 cells.
When purified pDCs from HDs or SSc patients were cultured with CXCL4 alone ([…]), there was no effect on IFN production.

[3] = system: TLR7-mediated activation of human B cells; test: TLR7-mediated activation of human B cells (R848 with or without CXCL4); format: cell-based; details: R848 0.15 μM + CXCL4 10 μg/ml
Method: IL-6 and TNF gene levels were measured at 6 hour post culture by PCR, secretion of IL-6 and TNF were quantified using luminex and CD83 and CD80 expression was measured by flow cytometry at 24 hour post culture.

[4] = system: TLR9-mediated activation of human B cells; test: TLR9-mediated activation of human B cells (CpG with or without chemokines); format: cell-based
Method: as §1
IL-6, TNF, and IL-10 gene levels were measured at 6 hours post culture using PCR. The secretion of cytokines/chemokines in the supernatants was quantified using Luminex. CD83, CD80, CD86 and CD69 expression was measured by flow cytometry at 24 hour post culture.
Human B cells were purified and cultured for 6 hours or 24 hours either with medium only, with CpG-C (at 0.15 μM) alone or with a combination of CpG-C and CXCL4 (at 10 μg/ml). IL-6 gene levels was measured at 6 hour post culture by PCR and CD83, CD80, CD86 and CD69 expression was measured by flow cytometry at 24 hour post culture.
Purified B cells from HDs were cultured in media alone (control), with either a CpG TLR9 agonist (0.15 μM) or with CpG and either CXCL4, CXCL10, CXCL9, CXCL4, CXCL7 or CXCL12 (all at 10 μg/ml). IL-6 was quantified in the supernatants by ELISA.
Purified B cells from HDs were cultured in media alone (control), with either a CpG TLR9 agonist (0.25 μM) or with CpG and CXCL4 or CXCL10 (10 μg/ml) alone or in the presence of the CXCR3 inhibitor AMG487 at 0, 0.1, 1 or 10 μM for 6 hours or 24 hours. IL-6 was quantified by ELISA at 24 hours and IL-6 and TNF gene expression levels were quantified by q-PCR at 6 hours and CD83, CD80, CD86 and CD69 expression was measured by flow cytometry at 24 hours post culture.

pDCs of HDs = test: TLR gene expression in purified pDCs from HDs cultured with cytokines or chemokines (qPCR); format: cell-based, human; details: 10 μg/ml each, 24 hours, pDCs from HDs
Method: as §1
PCR reactions were performed as described previously with 10 ng of cDNA (Barrat et al. 2005). In brief, RNA was extracted from cells using the Qiagen RNeasy Mini Kit. Quantity of RNA was measured by Nanodrop and high-capacity cDNA Reverse Transcription kit was used to generate 20-50 ng cDNA. Gene expression levels were calculated based on relative threshold cycle (Ct) values. This was done using the formula Relative Ct=100×1.8 (HSK-GENE), where HSK is the mean CT of duplicate housekeeping gene runs (we used Ubiquitin), GENE is the mean CT of duplicate runs of the gene of interest, and 100 is arbitrarily chosen as a factor to bring all values above 0.
In particular, CXCL4 or IP-10 (two CXCR3B agonists) (10 μg/ml each) had no impact on TLR8 nor TLR7 and TLR9 expression levels in pDCs (FIG. 2C).

[5] = system: TLR7-mediated activation of pDCs; format: cell-based, human; details: CXCL4 10 μg/ml; TLR7 agonist at suboptimal dose; similar in HDs and SSc patients
[6] = CpG-B 0.15 μM + CXCL4 10 μg/ml, 6 hours

Substance: CXCL4: small chemokine of the CXC family, 70-amino acid protein released from alpha-granules of activated platelets
- IFN-inducible IP-10 in healthy monocytes (healthy monocytes): reduces
- IL-6 in healthy monocytes (healthy monocytes): increases
- TNF in healthy monocytes (healthy monocytes): increases
- TLR9 response (IFN-α) of pDCs ([1]; CXCL4 10 μg/ml, CpG-C 0.1 μM or CpG-B 0.25 μM, suboptimal doses, similar in HDs and SSc patients): drastically impacted
- TLR9-induced response (IFN-α secretion) by pDCs ([1]; CpG 0.25 μM, chemokine 10 μg/ml (Example 17)): superinduce
- dependence of IFN-α superinduction on chemokine receptors ([1]; with AMG487 100 nM, AMD3100 10 μg/ml, anti-CXCR7 11G8 10 μg/ml, J113863 1.5 μM or Vicriviroc 0.1 μM): independent of their chemokine receptors
- IL-6 production in response to TLR8 [2]: no effect
- TNF production in response to TLR8 [2]: no effect
- production of IFN-α in response to TLR8 ([2]; p<0.001): significantly increased
- production of IP-10 in response to TLR8 ([2]; p<0.001): significantly increased
- gene expression or secretion of IL-6 when activated by TLR7 [3]: little effect
- gene expression or secretion of TNF when activated by TLR7 [3]: little effect
- effect of inhibition of CXCR3 on the chemokine's inhibition of TLR9 in B cells ([4]; CXCR3 inhibitor AMG487 0.1, 1 or 10 μM, CpG 0.25 μM, chemokine 10 μg/ml, 6 or 24 hours): no effect
- activation of B cells via TLR9 as shown by the production of IL-6 ([4]; CpG 0.15 μM, chemokine 10 μg/ml, ELISA): inhibited
- expression of IL-6 in B cells (PCR and protein) [4, 6]: negatively regulated
- expression of IL-10 in B cells (PCR and protein) [4, 6]: negatively regulated
- expression of TNF in B cells (PCR and protein) [4, 6]: negatively regulated
- TLR9 activation of B cells (IL-6 gene; CD83, CD80, CD86, CD69) ([4]; CpG-C 0.15 μM + CXCL4 10 μg/ml, 6 or 24 hours): negatively regulated
- TLR8, TLR7 and TLR9 expression levels in pDCs (pDCs of HDs): no impact
- TLR7 response (IFN-α) of pDCs [5]: little to no effect
